{
  "source": "ChEMBL document CHEMBL3091453",
  "about": "“Bioactive compounds from Stuhlmannia moavi from the Madagascar dry forest” (Bioorg Med Chem, 2013)",
  "key": {"A2780": {"test_system": "A2780", "assay": "Antiproliferative activity against human A2780 cells after 2 days by Alamar Blue assay", "format": "functional, cell-based", "settings": "for IC50: A2780, 48 h"}, "Plasmodium falciparum": {"test_system": "Plasmodium falciparum", "assay": "Antimalarial activity against chloroquine/mefloquine-resistant Plasmodium falciparum Dd2 after 72 hrs by SYBR Green I assay", "format": "functional", "settings": "Dd2, 72 h"}},
  "note": "The source made the active and inactive calls. The rule behind the calls is not given here.",
  "data": [
    {"compound": "COc1cc(O)cc(/C=C/c2ccc(O)c(O)c2)c1", "values": [
      {"measurement": "IC50", "setting": "A2780", "result": 54, "unit": "µM"},
      {"measurement": "IC50", "setting": "Plasmodium falciparum", "result": 27, "unit": "µM"}
    ]},
    {"compound": "COC1=CC(=O)c2c(O)c(C(C)=O)c(C)c(O)c2C1=O", "values": [
      {"measurement": "IC50", "setting": "A2780", "result": 8.1, "unit": "µM"},
      {"measurement": "IC50", "setting": "Plasmodium falciparum", "result": 24, "unit": "µM"}
    ]},
    {"compound": "COc1cc(/C=C/c2cc(O)cc(O)c2)ccc1O", "values": [
      {"measurement": "Activity", "setting": "A2780", "result": "Active"}
    ]},
    {"compound": "C[C@@H]1CC[C@H]2[C@@H](C)C(=O)O[C@@H]3O[C@@]4(C)CC[C@@H]1[C@]32OO4", "note": "[ARTEMISININ]", "values": [
      {"measurement": "IC50", "setting": "Plasmodium falciparum", "result": 0.007, "unit": "µM"}
    ]},
    {"compound": "COc1ccc(/C=C2\\COc3cc(O)ccc3C2=O)cc1", "note": "[BONDUCELLIN]", "values": [
      {"measurement": "IC50", "setting": "A2780", "result": 10.6, "unit": "µM"},
      {"measurement": "IC50", "setting": "Plasmodium falciparum", "result": 26, "unit": "µM"}
    ]},
    {"compound": "CC(=O)O[C@H]1C(=O)[C@@]2(C)[C@H]([C@H](OC(=O)c3ccccc3)[C@]3(O)C[C@H](OC(=O)[C@H](O)[C@@H](NC(=O)c4ccccc4)c4ccccc4)C(C)=C1C3(C)C)[C@]1(OC(C)=O)CO[C@@H]1C[C@@H]2O", "note": "[PACLITAXEL]", "values": [
      {"measurement": "IC50", "setting": "A2780", "result": 0.024, "unit": "µM"}
    ]},
    {"compound": "Oc1cc(O)cc(/C=C/c2ccc(O)c(O)c2)c1", "note": "[PICEATANNOL]", "values": [
      {"measurement": "IC50", "setting": "A2780", "result": 41, "unit": "µM"}
    ]},
    {"compound": "Oc1ccc(/C=C/c2cc(O)cc(O)c2)cc1", "note": "[RESVERATROL]", "values": [
      {"measurement": "IC50", "setting": "A2780", "result": 74, "unit": "µM"}
    ]}
  ]
}
